The record followed here is ChEMBL document CHEMBL1136995, “2,6-Diphenylthiazolo[3,2-b][1,2,4]triazoles as telomeric G-quadruplex stabilizers” (Bioorg Med Chem Lett, 2009).

Each structure is given as a SMILES string. Activity calls are given as the source filed them. No cut-off for these calls is given here. Some results are limits rather than exact numbers.

Type in all cases: nucleic-acid assay
Assay [1] relates to Nucleic Acid. The assay can be described thus: Binding affinity to G-quadruplex F21T DNA assessed as change in melting temperature at 0.8 uM under K+ ionic conditions by FRET assay.
Assay [2] relates to Nucleic Acid. The assay can be described thus: Binding affinity to G-quadruplex F21T DNA assessed as change in melting temperature at 0.6 uM under K+ ionic conditions by FRET assay.
For assay [3], the system named is Nucleic Acid. Description: Binding affinity to G-quadruplex F21T DNA assessed as change in melting temperature at 0.1 uM under K+ ionic conditions by FRET assay.
Assay [4] concerns Nucleic Acid. The assay can be described thus: Binding affinity to G-quadruplex F21T DNA assessed as change in melting temperature at 0.3 uM under K+ ionic conditions by FRET assay.
Assay [5] deals with Nucleic Acid. Description: Binding affinity to G-quadruplex F21T DNA assessed as quadruplex stabilization at 3 uM by FRET assay in presence of duplex ds26 oligonucleotide.
The subject of assay [6] is Nucleic Acid. The assay can be described thus: Binding affinity to G-quadruplex F21T DNA assessed as change in melting temperature at 3 uM under K+ ionic conditions by FRET assay.
For assay [7], the system named is Nucleic Acid. The assay can be described thus: Binding affinity to G-quadruplex F21T DNA assessed as change in melting temperature at 3 uM under Na+ ionic conditions by FRET assay.

In general, ΔTm refers to the shift of the melting midpoint relative to a reference. In the case of `Cc1oc2nc1-c1nc(co1)-c1nc(co1)-c1nc(co1)-c1nc(co1)-c1nc(co1)C1=NC(CS1)c1nc-2c(C)o1` (stereo not drawn), the figures for the ΔTm in assay [1] and in assay [2] were 15 °C and 10 °C, respectively.

On to `NC(=O)c1cccc(C(N)=O)n1`, for which the ΔTm was 10 °C in assay [3] and 15 °C in assay [4].

Regarding `c1cc(-c2nc3scc(-c4ccc(OCCN5CCCCC5)cc4)n3n2)ccc1OCCN1CCCCC1`, the result in assay [5] was Active. The ΔTm in assay [6] worked out at 8.7 °C; in assay [7], 2.1 °C.

In the case of `CCOC(=O)c1ccc(-c2csc3nc(-c4ccc(OCc5ccccc5)cc4)nn23)cc1`, the ΔTm in assay [6] and in assay [7] was less than 1 °C in each case.

As for `O=C(NCCN1CCCCC1)c1ccc(-c2csc3nc(-c4ccc(O)cc4)nn23)cc1`, the figures for the ΔTm in assay [6] and in assay [7] were 1.8 °C and less than 1 °C, respectively.

In the case of `Oc1ccc(-c2nc3scc(-c4ccc(O)cc4)n3n2)cc1`, the thermal shift (ΔTm) in assay [6] and in assay [7] was less than 1 °C throughout.

In the case of `O=C(NCCN1CCCCC1)c1ccc(-c2csc3nc(-c4ccc(OCc5ccccc5)cc4)nn23)cc1`, the ΔTm is 2.7 °C in assay [6] and less than 1 °C in assay [7].

For the molecule `c1ccc(COc2ccc(-c3nc4scc(-c5ccc(OCc6ccccc6)cc5)n4n3)cc2)cc1`, the ΔTm in assay [6] and in assay [7] was less than 1 °C throughout.

With `O=C(NCCN1CCCCC1)c1ccc(-c2csc3nc(-c4ccc(OCCN5CCCC5)cc4)nn23)cc1`, the outcome in assay [5] was inactive. For the same molecule, the ΔTm in assay [6] was 14.6 °C; in assay [7], 5.9 °C.

For `O=C(NCCN1CCCCC1)c1ccc(-c2csc3nc(-c4ccc(OCCN5CCCCC5)cc4)nn23)cc1`, the result in assay [5] was Active. Also, the shift in melting temperature (ΔTm) turned out to be 11.2 °C in assay [6] and 5 °C in assay [7].
